Experimental data reported in article PMC6887723, “Design and Synthesis of 4-(Heterocyclic Substituted Amino)-1H-Pyrazole-3-Carboxamide Derivatives and Their Potent Activity against Acute Myeloid Leukemia (AML)” (International Journal of Molecular Sciences, 2019).

Key:
[1] = system: human cell lines of NCI60; test: NCI60 screening, overall; type: cell-based; details: for most cell lines
Text: (§1) With these findings, we submitted compound 8t to National Cancer Institute (NCI) to evaluate their antitumor efficacy against 60 human cancer cell lines.

MV4-11 = test: Cell growth inhibition assay (CellTiter-Glo); type: cell-based; details: Homo sapiens, 72 h, highest test concentration 1 μM, mean ± SD, three independent experiments
Description: The human AML cell line MV4-11 was purchased from the American Type Culture Collection (ATCC) (Manassas, VA, USA). MV4-11 was cultured in IMDM media (Corning, Crown Bioscience Inc., Taicang, China) with 10% FBS and supplemented with 2% L-glutamine and 1% pen/strep. The MV4-11 cell line was maintained in culture media at 37 °C with 5% CO2. The effects of target compounds on MV4-11 proliferation was performed by Crown Bioscience Inc. Cells were grown in 96-well culture plates (10,000/well). The compounds of various concentrations were added into the plates. Cell proliferation was determined after treatment with compounds for 72 h. Cell viability was measured using the CellTiter-Glo assay (Promega, Crown Bioscience Inc., Taicang, China) according to the manufacturer’s instructions, and luminescence was measured in a multilabel reader (Envision2014, PerkinElmer, Crown Bioscience Inc., Taicang, China). Data were normalized to the control group (DMSO) and represented by the mean of three independent measurements with standard error of <20%. IC50 values were calculated using Prism 5.0 (GraphPad Software, San Diego, CA, USA).

SN12C = test: NCI60 screening; type: cell-based; details: Homo sapiens, Renal Cancer panel
Text: as §1

MCF7 = test: NCI60 screening; type: cell-based; details: Homo sapiens, Breast Cancer panel
Text: as §1

NCI-H226 = test: NCI60 screening; type: cell-based; details: Homo sapiens, Non-Small Cell Lung Cancer panel
Text: as §1

UO-31 = test: NCI60 screening; type: cell-based; details: Homo sapiens, Renal Cancer panel
Text: as §1

HL-60(TB) = test: NCI60 screening; type: cell-based; details: Homo sapiens, Leukemia panel
Text: as §1

OVCAR-5 = test: NCI60 screening; type: cell-based; details: Homo sapiens, Ovarian Cancer panel
Text: as §1

UACC-257 = test: NCI60 screening; type: cell-based; details: Homo sapiens, Melanoma panel
Text: as §1

SNB-19 = test: NCI60 screening; type: cell-based; details: Homo sapiens, CNS Cancer panel
Text: as §1

HOP-62 = test: NCI60 screening; type: cell-based; details: Homo sapiens, Non-Small Cell Lung Cancer panel
Text: as §1

SK-MEL-28 = test: NCI60 screening; type: cell-based; details: Homo sapiens, Melanoma panel
Text: as §1

HCT-15 = test: NCI60 screening; type: cell-based; details: Homo sapiens, Colon Cancer panel
Text: as §1

OVCAR-8 = test: NCI60 screening; type: cell-based; details: Homo sapiens, Ovarian Cancer panel
Text: as §1

NCI-H522 = test: NCI60 screening; type: cell-based; details: Homo sapiens, Non-Small Cell Lung Cancer panel
Text: as §1

EKVX = test: NCI60 screening; type: cell-based; details: Homo sapiens, Non-Small Cell Lung Cancer panel
Text: as §1

MDA-MB-468 = test: NCI60 screening; type: cell-based; details: Homo sapiens, Breast Cancer panel
Text: as §1

HS 578T = test: NCI60 screening; type: cell-based; details: Homo sapiens, Breast Cancer panel
Text: as §1

PC-3 = test: NCI60 screening; type: cell-based; details: Homo sapiens, Prostate Cancer panel
Text: as §1

IGROV1 = test: NCI60 screening; type: cell-based; details: Homo sapiens, IGROV-1; Ovarian Cancer panel
Text: as §1

OVCAR-4 = test: NCI60 screening; type: cell-based; details: Homo sapiens, Ovarian Cancer panel
Text: as §1

SF-539 = test: NCI60 screening; type: cell-based; details: Homo sapiens, CNS Cancer panel
Text: as §1

T-47D = test: NCI60 screening; type: cell-based; details: Homo sapiens, T47D; Breast Cancer panel
Text: as §1

UACC-62 = test: NCI60 screening; type: cell-based; details: Homo sapiens, Melanoma panel
Text: as §1

CCRF-CEM = test: NCI60 screening; type: cell-based; details: Homo sapiens, Leukemia panel
Text: as §1

TK-10 = test: NCI60 screening; type: cell-based; details: Homo sapiens, Renal Cancer panel
Text: as §1

A549/ATCC = test: NCI60 screening; type: cell-based; details: Homo sapiens, Non-Small Cell Lung Cancer panel
Text: as §1

OVCAR-3 = test: NCI60 screening; type: cell-based; details: Homo sapiens, Ovarian Cancer panel
Text: as §1

RXF 393 = test: NCI60 screening; type: cell-based; details: Homo sapiens, Renal Cancer panel
Text: as §1

RPMI-8226 = test: NCI60 screening; type: cell-based; details: Homo sapiens, Leukemia panel
Text: as §1

CAKI-1 = test: NCI60 screening; type: cell-based; details: Homo sapiens, Renal Cancer panel
Text: as §1

NCI/ADR-RES = test: NCI60 screening; type: cell-based; details: Homo sapiens, Ovarian Cancer panel
Text: as §1

NCI-H460 = test: NCI60 screening; type: cell-based; details: Homo sapiens, Non-Small Cell Lung Cancer panel
Text: as §1

MDA-MB-231 = test: NCI60 screening; type: cell-based; details: Homo sapiens, Breast Cancer panel
Text: as §1

KM12 = test: NCI60 screening; type: cell-based; details: Homo sapiens, Colon Cancer panel
Text: as §1

BT-549 = test: NCI60 screening; type: cell-based; details: Homo sapiens, Breast Cancer panel
Text: as §1

BaF3 (FLT3 (ITD-F691L)) = test: Antiproliferative activity in BaF3 cells transformed with FLT3-ITD-F691L; type: cell-based; details: Mus musculus, Table S2
[2] = system: phosphorylation of the retinoblastoma protein (Rb); test: Western blot, phosphorylation of Rb in MV4-11 cells; type: cell-based, human; details: MV4-11, 4 h; dose-dependent; at 1 μM comparable with AT-7519
Description: Analysis of pFLT3, pSTAT5, pERK, pAKT, and pRb in vitro: to determine the levels of pFLT3, pSTAT5, pERK, pAKT, and pRb, cells were seeded in a 6-well cell culture plate at a density of 400,000 cells per well for MV4-11 in a total volume of 1800 μL and incubated overnight in medium containing 10% fetal bovine serum (Life Technologies, Rockville, MD, USA). Then 200 μL of serially diluted compounds were added to each well the next day. Cell lysates were harvested after 4 h and pFLT3, pSTAT5, pERK, pAKT, or pRb were quantified using assay kits for FLT3/Phospho-FLT3Tyr589/591, pSTAT5 (Tyr694)/total STAT5, pRb (Ser807)/total Rb (Nanjin keyGen Biotech Company, Nanjing, China) following the manufacturer’s protocols.

## O=C(Nc1ccc(N2CCNCC2)cc1)c1n[nH]cc1Nc1ncnc2sc3c(c12)CCC3 [Compound 8t]
[1]
  GI50: < 1000 nM
MV4-11
  IC50: 1.22 ± 0.06 nM
SN12C
  GI50: 450 nM
MCF7
  GI50: 160 nM
NCI-H226
  GI50: 320 nM
UO-31
  GI50: 400 nM
HL-60(TB)
  GI50: 1150 nM
OVCAR-5
  GI50: 270 nM
UACC-257
  GI50: 480 nM
SNB-19
  GI50: 240 nM
HOP-62
  GI50: 370 nM
SK-MEL-28
  GI50: 1130 nM
HCT-15
  GI50: 220 nM
OVCAR-8
  GI50: 360 nM
NCI-H522
  GI50: 210 nM
EKVX
  GI50: 60 nM
MDA-MB-468
  GI50: 420 nM
HS 578T
  GI50: 100 nM
PC-3
  GI50: 180 nM
IGROV1
  GI50: 120 nM
OVCAR-4
  GI50: 220 nM
SF-539
  GI50: 390 nM
T-47D
  GI50: 590 nM
UACC-62
  GI50: 1090 nM
CCRF-CEM
  GI50: 220 nM
TK-10
  GI50: 470 nM
A549/ATCC
  GI50: 140 nM
OVCAR-3
  GI50: 230 nM
RXF 393
  GI50: 390 nM
RPMI-8226
  GI50: 890 nM
CAKI-1
  GI50: 80 nM
NCI/ADR-RES
  GI50: 1480 nM
NCI-H460
  GI50: 60 nM
MDA-MB-231
  GI50: 1930 nM
KM12
  GI50: 170 nM
BT-549
  GI50: 1020 nM
BaF3 (FLT3 (ITD-F691L))
  IC50: 21.9 nM
[2]
  phosphorylation of the retinoblastoma protein (Rb): inhibited
